Assay results reported in doi:10.1101/2025.05.23.655777v1 (biorxiv, 2025).

Biological target: GABA-AT; GABA aminotransferase 1 (recombinant) (Arabidopsis thaliana, UniProt Q94CE5)
Experiment: inhibition kinetics, LDH-coupled or HPLC assay, competitive fit
Format: biochemical

Ki: 420 µM
Structure (SMILES): N[C@@H](CS)C(=O)O [L-cysteine]
